# Assay results from PubChem BioAssay (NCI).
#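 Cultured in 96-well plates, cells were exposed to test compound for 48 hours across five concentrations. GI50 is the concentration that inhibits growth by half. TGI: concentration producing complete growth inhibition.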
# Experiments:
# Assay in all cases: DTP human tumour cell line panel, 48 h
# 786-0 renal = tested on: 786-0 renal
# A498 renal = tested on: A498 renal
# A549 NSCLC = tested on: A549 NSCLC
# ACHN renal = tested on: ACHN renal
# BT-549 breast = tested on: BT-549 breast
# CAKI-1 renal = tested on: CAKI-1 renal
# CCRF-CEM leukemia = tested on: CCRF-CEM leukemia
# COLO 205 colon = tested on: COLO 205 colon
# DU-145 prostate = tested on: DU-145 prostate
# EKVX NSCLC = tested on: EKVX NSCLC
# HCC-2998 colon = tested on: HCC-2998 colon
# HCT-116 colon = tested on: HCT-116 colon
# HCT-15 colon = tested on: HCT-15 colon
# HL-60(TB) leukemia = tested on: HL-60(TB) leukemia
# HOP-62 NSCLC = tested on: HOP-62 NSCLC
# HOP-92 NSCLC = tested on: HOP-92 NSCLC
# HS 578T breast = tested on: HS 578T breast
# HT29 colon = tested on: HT29 colon
# IGROV1 ovarian = tested on: IGROV1 ovarian
# K-562 leukemia = tested on: K-562 leukemia
# KM12 colon = tested on: KM12 colon
# LOX IMVI melanoma = tested on: LOX IMVI melanoma
# M14 melanoma = tested on: M14 melanoma
# MALME-3M melanoma = tested on: MALME-3M melanoma
# MCF7 breast = tested on: MCF7 breast
# MDA-MB-231 breast = tested on: MDA-MB-231 breast
# MDA-MB-435 = tested on: MDA-MB-435
# MOLT-4 leukemia = tested on: MOLT-4 leukemia
# NCI-H226 lung = tested on: NCI-H226 lung
# NCI-H23 lung = tested on: NCI-H23 lung
# NCI-H460 lung = tested on: NCI-H460 lung
# NCI-H522 lung = tested on: NCI-H522 lung
# NCI/ADR-RES ovarian = tested on: NCI/ADR-RES ovarian
# OVCAR-3 ovarian = tested on: OVCAR-3 ovarian
# OVCAR-4 ovarian = tested on: OVCAR-4 ovarian
# OVCAR-5 ovarian = tested on: OVCAR-5 ovarian
# OVCAR-8 ovarian = tested on: OVCAR-8 ovarian
# PC-3 prostate = tested on: PC-3 prostate
# RPMI-8226 leukemia = tested on: RPMI-8226 leukemia
# RXF 393 renal = tested on: RXF 393 renal
# SF-268 CNS = tested on: SF-268 CNS
# SF-295 CNS = tested on: SF-295 CNS
# SF-539 CNS = tested on: SF-539 CNS
# SK-MEL-2 melanoma = tested on: SK-MEL-2 melanoma
# SK-MEL-28 melanoma = tested on: SK-MEL-28 melanoma
# SK-MEL-5 melanoma = tested on: SK-MEL-5 melanoma
# SK-OV-3 ovarian = tested on: SK-OV-3 ovarian
# SN12C renal = tested on: SN12C renal
# SNB-19 CNS = tested on: SNB-19 CNS
# SNB-75 CNS = tested on: SNB-75 CNS
# SR leukemia = tested on: SR leukemia
# SW-620 colon = tested on: SW-620 colon
# T-47D breast = tested on: T-47D breast
# TK-10 renal = tested on: TK-10 renal
# U251 CNS = tested on: U251 CNS
# UACC-257 melanoma = tested on: UACC-257 melanoma
# UACC-62 melanoma = tested on: UACC-62 melanoma
# UO-31 renal = tested on: UO-31 renal
structure (smiles),measurement,setting,value
FC(F)(F)CNc1nccc(-c2cnn3ncccc23)n1,GI50,786-0 renal,9.67 µM
same,TGI,786-0 renal,> 25 µM
same,GI50,A498 renal,3.85 µM
same,TGI,A498 renal,> 22.6 µM
same,GI50,A549 NSCLC,10.3 µM
same,TGI,A549 NSCLC,> 25 µM
same,GI50,ACHN renal,6.41 µM
same,TGI,ACHN renal,> 25 µM
same,GI50,BT-549 breast,> 14.1 µM
same,TGI,BT-549 breast,> 25 µM
same,GI50,CAKI-1 renal,15.9 µM
same,TGI,CAKI-1 renal,> 25 µM
same,GI50,CCRF-CEM leukemia,> 18.9 µM
same,TGI,CCRF-CEM leukemia,> 25 µM
same,GI50,COLO 205 colon,8.58 µM
same,TGI,COLO 205 colon,> 25 µM
same,GI50,DU-145 prostate,12 µM
same,TGI,DU-145 prostate,> 25 µM
same,GI50,EKVX NSCLC,15.1 µM
same,TGI,EKVX NSCLC,> 25 µM
same,GI50,HCC-2998 colon,> 25 µM
same,TGI,HCC-2998 colon,> 25 µM
same,GI50,HCT-116 colon,8.3 µM
same,TGI,HCT-116 colon,> 25 µM
same,GI50,HCT-15 colon,16.1 µM
same,TGI,HCT-15 colon,> 25 µM
same,GI50,HL-60(TB) leukemia,8.35 µM
same,TGI,HL-60(TB) leukemia,> 19.9 µM
same,GI50,HOP-62 NSCLC,> 13.6 µM
same,TGI,HOP-62 NSCLC,> 25 µM
same,GI50,HOP-92 NSCLC,6.13 µM
same,TGI,HOP-92 NSCLC,> 25 µM
same,GI50,HS 578T breast,8.14 µM
same,TGI,HS 578T breast,> 25 µM
same,GI50,HT29 colon,16.3 µM
same,TGI,HT29 colon,> 25 µM
same,GI50,IGROV1 ovarian,11.9 µM
same,TGI,IGROV1 ovarian,> 25 µM
same,GI50,K-562 leukemia,> 25 µM
same,TGI,K-562 leukemia,> 25 µM
same,GI50,KM12 colon,9.54 µM
same,TGI,KM12 colon,> 25 µM
same,GI50,LOX IMVI melanoma,10.7 µM
same,TGI,LOX IMVI melanoma,> 25 µM
same,GI50,M14 melanoma,11.5 µM
same,TGI,M14 melanoma,> 25 µM
same,GI50,MALME-3M melanoma,> 25 µM
same,TGI,MALME-3M melanoma,> 25 µM
same,GI50,MCF7 breast,7.3 µM
same,TGI,MCF7 breast,> 25 µM
same,GI50,MDA-MB-231 breast,> 25 µM
same,TGI,MDA-MB-231 breast,> 25 µM
same,GI50,MDA-MB-435,13.7 µM
same,TGI,MDA-MB-435,> 25 µM
same,GI50,MOLT-4 leukemia,> 25 µM
same,TGI,MOLT-4 leukemia,> 25 µM
same,GI50,NCI-H226 lung,12.6 µM
same,TGI,NCI-H226 lung,> 25 µM
same,GI50,NCI-H23 lung,9.54 µM
same,TGI,NCI-H23 lung,> 25 µM
same,GI50,NCI-H460 lung,10.2 µM
same,TGI,NCI-H460 lung,> 25 µM
same,GI50,NCI-H522 lung,9.91 µM
same,TGI,NCI-H522 lung,> 25 µM
same,GI50,NCI/ADR-RES ovarian,13.6 µM
same,TGI,NCI/ADR-RES ovarian,> 25 µM
same,GI50,OVCAR-3 ovarian,10.5 µM
same,TGI,OVCAR-3 ovarian,> 25 µM
same,GI50,OVCAR-4 ovarian,> 25 µM
same,TGI,OVCAR-4 ovarian,> 25 µM
same,GI50,OVCAR-5 ovarian,9.68 µM
same,TGI,OVCAR-5 ovarian,> 25 µM
same,GI50,OVCAR-8 ovarian,8.58 µM
same,TGI,OVCAR-8 ovarian,> 25 µM
same,GI50,PC-3 prostate,24.5 µM
same,TGI,PC-3 prostate,> 25 µM
same,GI50,RPMI-8226 leukemia,> 17.5 µM
same,TGI,RPMI-8226 leukemia,> 25 µM
same,GI50,RXF 393 renal,4.86 µM
same,TGI,RXF 393 renal,12.4 µM
same,GI50,SF-268 CNS,8.24 µM
same,TGI,SF-268 CNS,> 25 µM
same,GI50,SF-295 CNS,11.9 µM
same,TGI,SF-295 CNS,> 25 µM
same,GI50,SF-539 CNS,7.76 µM
same,TGI,SF-539 CNS,> 25 µM
same,GI50,SK-MEL-2 melanoma,8.72 µM
same,TGI,SK-MEL-2 melanoma,> 25 µM
same,GI50,SK-MEL-28 melanoma,8.13 µM
same,TGI,SK-MEL-28 melanoma,> 25 µM
same,GI50,SK-MEL-5 melanoma,10.5 µM
same,TGI,SK-MEL-5 melanoma,> 25 µM
same,GI50,SK-OV-3 ovarian,> 25 µM
same,TGI,SK-OV-3 ovarian,> 25 µM
same,GI50,SN12C renal,14.5 µM
same,TGI,SN12C renal,> 25 µM
same,GI50,SNB-19 CNS,12.7 µM
same,TGI,SNB-19 CNS,> 25 µM
same,GI50,SNB-75 CNS,11.3 µM
same,TGI,SNB-75 CNS,> 25 µM
same,GI50,SR leukemia,6.88 µM
same,TGI,SR leukemia,> 25 µM
same,GI50,SW-620 colon,10.9 µM
same,TGI,SW-620 colon,> 25 µM
same,GI50,T-47D breast,8.93 µM
same,TGI,T-47D breast,> 25 µM
same,GI50,TK-10 renal,10.3 µM
same,TGI,TK-10 renal,> 25 µM
same,GI50,U251 CNS,9.82 µM
same,TGI,U251 CNS,> 25 µM
same,GI50,UACC-257 melanoma,> 19.2 µM
same,TGI,UACC-257 melanoma,> 25 µM
same,GI50,UACC-62 melanoma,10.9 µM
same,TGI,UACC-62 melanoma,> 25 µM
same,GI50,UO-31 renal,15.3 µM
same,TGI,UO-31 renal,> 25 µM
